Experimental findings from ChEMBL document CHEMBL1159204, “Limonoids showing selective toxicity to DNA repair-deficient yeast and other constituents of Trichilia emetica” (J Nat Prod, 1998) are described below.

Values after ≈ are worked out from the molar mass of the structure shown.

The subject of experiment [1] is Saccharomyces cerevisiae. Description: DNA damaging activity against RS 188N (RAD+) yeast assessed as drug level required to produce 12 mm zone of inhibition. It is filed as functional.
In experiment [2] the test system is Saccharomyces cerevisiae. Description: DNA damaging activity against DNA repair-deficient RS 322YK (rad 52Y) yeast assessed as drug level required to produce 12 mm zone of inhibition. In kind it is functional.
In another experiment the test system is Vero. Description: Cytotoxicity against african green monkey Vero cells. It is filed as cell-based. The settings on record: Chlorocebus sabaeus.

As for `CC[C@@]1(O)C(=O)OCc2c1cc1n(c2=O)Cc2cc3ccccc3nc2-1` [CAMPTOTHECIN], the IC12 was 110 µg/mL with Saccharomyces cerevisiae [1] and 0.6 µg/mL in the experiment with Saccharomyces cerevisiae [2].
One may read the IC50 as the midpoint of a concentration-inhibition curve. `C=C1[C@@H]([C@@]2(C)[C@@H](OC(C)=O)C[C@@]3(O)OC[C@](C)(O3)[C@@H]2CC(=O)OC)[C@@H](OC=O)[C@H](OC(=O)C(O)C(C)CC)[C@@]2(C)[C@H](c3ccoc3)CC(=O)[C@]12O` (stereo not given in full) registered an IC50 in the experiment on Vero of 12 µg/mL (≈ 16.6 µM). Moreover, the IC12 is 100 µg/mL with Saccharomyces cerevisiae [1] and 0.9 µg/mL in the experiment on Saccharomyces cerevisiae [2].
